Measured values: US20050096360A1, “Inhibitors of semicarbazide-sensitive amine oxidase (SSAO) and VAP-1 mediated adhesion useful for treatment of diseases” (priority 2003, published 2005)
Read-outs that look alike come from different tables or passages of the source.

Experiments:
EAE in C57BL/6 mice = test: Experimental autoimmune encephalomyelitis (EAE), MOG 35-55; type: in vivo
Description: SSAO/VAP-1 is expressed on the endothelium of inflamed tissues/organs including brain and spinal cord. Its ability to support lymphocyte transendothelial migration may be an important systemic function of SSAO/VAP-1 in inflammatory diseases such as multiple sclerosis and Alzheimer's disease. An analysis of the use of SSAO inhibitors to treat inflammatory disease of the central nervous system (CNS) was performed through the use of an experimental autoimmune encephalomyelitis model (EAE) in C57BL/6 mice. EAE in rodents is a well-characterized and reproducible animal model of multiple sclerosis in human (Benson J. M. et al. (2000) J. Clin. Invest. 106:1031). Multiple sclerosis is a chronic immune-mediated disease of the CNS characterized by pachy perivenular inflammatory infiltrates in areas of demyelination and axonal loss. As an animal model, EAE can be induced in mice by immunization with encephalitogenic myelin antigens in the presence of adjuvant. The pathogenesis of EAE comprises presentation of myelin antigens to T cells, migration of activated T cells to the CNS, and development of inflammation and/or demyelination upon recognition of the same antigens.
Thirty female C57BL/6 mice were immunized subcutaneously (s.c). with myelin oligodendrocyte glycoprotein 35-55 (MOG peptide 35-55) in Complete Freund Adjuvant (CFA) on day 0, followed by i.p. injections of pertussis toxin (one pertussis toxin injection on day 0, a second pertussis toxin injection on day 2). Groups of 10 mice received either the allylamine compound mofegiline (AA, 10 mg/kg/dose, twice daily for 18 consecutive days), methotrexate (2.5 mg/kg/day, every other day (Mon., Weds., Fri.) till day 18) or vehicle control (twice/day for 18 consecutive days) all-starting from one day after the immunization and all administered i.p. Then animals were monitored for body weight, signs of paralysis and death according to a 0-5 scale of scoring system as follows: 1=limp tail or waddling gait with tail tonicity; 2=waddling gait with limp tail (ataxia); 2.5=ataxia with partial limb paralysis; 3=full paralysis of one limb; 3.5=full paralysis of one limb with partial paralysis of second limb; 4=full paralysis of two limbs; 4.5=moribund; 5=death. Results are shown in FIG. 2A, FIG. 2B, and FIG. 2C. […] (p=0.04 by repeated measure analysis to assess the treatment effect. Proper polynomial transformation, with the spacing corresponding to the collection days, was applied to test the time effect). Statistically significant differences in diseases severity between the AA and vehicle-treated groups, continued even after stopping compound administration and were observed until the end of the study (d25) .

C57B1/6 female mice = test: Acute toxicity studies in mice; type: in vivo
Description: (§1) Intraperitoneal (i.p.) and intravenous (i.v.) LD50 values for the compounds of Examples 8 and 10, as well as mofegiline, the allylamine compound described in Example 18, were determined in mice. Six-week old C57B1/6 female mice were divided in groups of five and administered a single i.p or i.v. injection of compound dissolved in PBS (10-100 mg/kg in 100 ul i.v.; 30-500 mg/kg in 200 ul i.p.). Control groups were administered the same volume of PBS i.p. or i.v. Appearance and overt behavior were noted daily, and body weight was measured before compound administration (Day 1) and on Days, 3, 5 and 7. After seven days, animals were euthanized and their liver, spleen and kidneys weighted.
(§2) Acute toxicity effects for mofegiline included tremors (40 mg/kg i.v.; 100 mg/kg i.p.) and clonic convulsions and labored breathing (100 mg/kg i.v.; 200 mg/kg i.p.). […] All deaths occurred within 24 hours after drug administration. […] Thus, there is no indication of the cause of death for any of the compounds tested.

[1] = Acute toxicity studies in mice; type: in vivo; conditions: female, C57B1/6, mouse, in vivo, Day 7 values
Description: as §1, §2

[2] = tested on: adhesion of human PBMCs to rat HEC transfected with full-length human SSAO/VAP-1; test: In vitro adhesion of PBMCs to SSAO/VAP-1-transfected high endothelial cells; type: cell-based; conditions: inhibitors at IC100 concentrations, antibody 10 μg/ml; 3 hr at 37° C.
Description: The studies in this Example were carried out in order to determine whether SSAO/VAP-1 transfected into endothelial cells retained the adhesion function and whether it played any role in the adhesion of freshly isolated human PBMCs to these cells. Moreover, the studies were also designed to determine whether blocking of SSAO/VAP-1 would have an impact on the level of adhesion between these two cell types. Adhesion assays were performed using cells labeled with the fluorescent dye Calcein-AM (Molecular Probes, OR, USA) as per the manufacturer's instructions. Briefly, rat lymph node high endothelial cells (HEC; isolation and culture was described in Ager, A. (1987) J. Cell Sci. 87: 133) were plated overnight in 96-well plates (2,000 cells/well). PBMCs (peripheral blood mononuclear cells) (1×10^7) were labeled with 1 ml of 10 μM Calcein-AM for 1 hr at 37° C., washed three times with RPMI, and added to the 96 well plates containing monolayers of HEC cells mock-transfected or transfected with full-length human SSAO/VAP-1 (60,000 PBMCs were plated per well containing 2,000 HEC cells). Adhesion was carried out for 3 hr at 37° C. Non-adherent cells were removed by washing three times with RPMI and fluorescence was measured in a fluorescence plate reader at an excitation wavelength of 485 nm and emission wavelength of 530 nm. Several controls were included, such as HEC cells and PBMCs (labeled and unlabeled) alone.
(§3) These studies were repeated using the adhesion assay as described above to evaluate the inhibitors of the invention. Adhesion blockers used included an anti-human VAP-1 monoclonal antibody (Serotec, Oxford, UK), neuramidase (a sialidase, because SSAO/VAP-1 is a sialoglycoprotein; Sigma), and several function-blocking antibodies to rat adhesion molecules (CD31-PECAM, CD54-ICAM-1, […]-P Selectin). […] Antibodies (10 μg/ml) and neuramidase (5 mU) were incubated with the HECs for 30 min at 37° C.; excess antibody was washed away prior to the addition of the labeled PBMCs. Small-molecule inhibitors were pre-incubated the same way at IC100 concentrations, but the amounts present in the supernatant were not washed away to preserve the IC100 concentration during the adhesion step.

SSAO = test: IC100 concentrations of SSAO inhibitors used in the adhesion assay; type: biochemical; conditions: FIG. 7 legend
Source text: FIG. 7 depicts the effect of blockage of SSAO/VAP-1 on binding between peripheral blood mononuclear cells (PBMCs) and high endothelial cells (HEC). FIG. 7A is a control experiment showing the effect of various compounds used for treatment on the adhesion of PBMCs to mock-transfected high endothelial cells; a non-treated control is included for comparison (MNT). FIG. 7B is a control experiment showing the effect of various compounds used for treatment on the adhesion of PBMCs to high endothelial cells transfected with VAP-1; a non-treated control is included for comparison (VNT).
as §3

NC/C(=C/F)CCc1ccc(F)cc1 [Mofegiline, mofegiline, reference compound]
disease severity (clinical score) (EAE in C57BL/6 mice; 10 mg/kg/dose i.p. twice daily for 18 days, p=0.04 vs vehicle): statistically significant reduction | disease incidence (mice affected) (EAE in C57BL/6 mice; 10 mg/kg/dose i.p. twice daily, dosing period up to day 18, vehicle 80%): 50% | body weight loss (EAE in C57BL/6 mice; 10 mg/kg/dose i.p. twice daily, dosing period, p=0.04): prevented | dose causing tremors (C57B1/6 female mice; i.p.): 100 mg/kg | dose causing convulsions and labored breathing (C57B1/6 female mice; i.p. (see Table 2)): 200 mg/kg | dose causing clonic convulsions and labored breathing (C57B1/6 female mice; i.v.): 100 mg/kg | dose causing tremors (C57B1/6 female mice; i.v.): 40 mg/kg | LD50 at 7 days ([1]; ip, single i.p. injection, read-out: LD50 intraperitoneal): 200 mg/kg | LD50 at 7 days ([1]; iv, single i.v. injection, read-out: LD50 intravenous): 70 mg/kg

C#CCN(C)Cc1ccccc1 [Pargyline, pargyline]
number of PBMCs adherent to SSAO/VAP-1 transfected HECs [2]: no effect

NNC(N)=O [Semicarbazide, semicarbazide]
IC100 (SSAO) (SSAO): 500 µM

C#CCN(C)CCCOc1ccc(Cl)cc1Cl [Clorgyline, clorgyline]
number of PBMCs adherent to SSAO/VAP-1 transfected HECs [2]: no effect
